# Data from ChEMBL document CHEMBL3425431, “Synthesis and evaluation of constrained phosphoramidate inhibitors of prostate-specific membrane antigen” (Bioorg Med Chem Lett, 2015).
# Calls of active or inactive are those of the source. The rule behind the calls is not given here.
# How the values were obtained:
# [1] = biological target: T1, Glutamate carboxypeptidase 2 (Homo sapiens, UniProt Q04609); assay: Inhibition of PSMA (unknown origin) incubated for 15 mins using PABGgG substrate by HPLC method
# Target sequence in this assay (Q04609 whole entry): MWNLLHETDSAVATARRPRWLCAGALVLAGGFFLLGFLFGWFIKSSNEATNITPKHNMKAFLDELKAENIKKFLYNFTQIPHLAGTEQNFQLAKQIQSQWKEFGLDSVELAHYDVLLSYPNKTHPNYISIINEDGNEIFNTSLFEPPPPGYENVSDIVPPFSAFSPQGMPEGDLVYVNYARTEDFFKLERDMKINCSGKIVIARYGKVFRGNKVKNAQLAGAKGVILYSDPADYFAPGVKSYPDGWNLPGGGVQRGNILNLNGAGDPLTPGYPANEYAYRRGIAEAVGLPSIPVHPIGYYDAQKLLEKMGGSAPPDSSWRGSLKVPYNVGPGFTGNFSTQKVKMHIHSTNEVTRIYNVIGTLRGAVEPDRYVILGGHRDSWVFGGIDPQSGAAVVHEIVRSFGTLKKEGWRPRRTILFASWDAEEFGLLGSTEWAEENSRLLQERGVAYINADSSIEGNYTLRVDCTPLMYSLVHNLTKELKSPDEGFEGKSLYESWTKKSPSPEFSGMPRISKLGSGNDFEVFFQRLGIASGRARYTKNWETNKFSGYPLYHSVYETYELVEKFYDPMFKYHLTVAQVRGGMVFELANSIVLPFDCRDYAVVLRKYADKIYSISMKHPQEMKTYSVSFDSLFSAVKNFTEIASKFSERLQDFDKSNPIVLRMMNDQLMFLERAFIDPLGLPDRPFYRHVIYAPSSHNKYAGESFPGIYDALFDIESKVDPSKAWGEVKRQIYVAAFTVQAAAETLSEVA
# [2] = biological target: T1, Glutamate carboxypeptidase 2; conditions: 0.1 uM
# Target sequence in this assay (Q04609 whole entry, looked up): as the sequence (Q04609 whole entry) above
# Description: Slow reversible inhibition of PSMA (unknown origin) at 0.1 uM pre-incubated for 10 mins before PABGgG substrate addition by HPLC method
# [3] = Half life in pH 4.5 buffer at 70 degC by [31P] NMR spectrometry; type: physicochemical
# [4] = Half life in pH 4.5 buffer at 50 degC by [31P] NMR spectrometry; type: physicochemical
# Mus musculus = assay: Drug uptake in other organs of human CWR22Rv1 cells xenografted athymic NCr-nu/nu mouse at 200 uCi, iv after 2 hrs by microPET/CT imaging method; type: ADME, organism-based; conditions: in vivo
# Kidney = assay: Drug uptake in kidney of human CWR22Rv1 cells xenografted athymic NCr-nu/nu mouse at 200 uCi, iv after 2 hrs by microPET/CT imaging method; type: ADME, organism-based; conditions: in vivo
# [5] = Drug uptake in tumor of human CWR22Rv1 cells xenografted athymic NCr-nu/nu mouse at 200 uCi, iv after 2 hrs by microPET/CT imaging method; type: ADME, organism-based, CWR22R; conditions: in vivo
SMILES,IC50 [1],inhibition [2],further results
NCCCCCC(=O)N[C@@H](CCC(=O)N[C@@H](CCCOP(=O)(O)N[C@@H](CCC(=O)O)C(=O)O)C(=O)O)C(=O)O,0.019 µM,,
N[C@@H](CCC(=O)N1C[C@@H](OP(=O)(O)N[C@@H](CCC(=O)O)C(=O)O)C[C@@H]1C(=O)O)C(=O)O,0.357 µM,Active,
O=C(O)CC[C@H](NP(=O)(O)O[C@H]1C[C@H](C(=O)O)N(C(=O)CC[C@H](NC(=O)c2ccc(F)cc2)C(=O)O)C1)C(=O)O,0.003 µM,Active,
O=C(O)CC[C@H](NP(=O)(O)O[C@@H]1C[C@@H](C(=O)O)N(C(=O)CC[C@H](NC(=O)c2ccc(F)cc2)C(=O)O)C1)C(=O)O,0.0026 µM,Active,
O=C(O)CC[C@H](NP(=O)(O)OCCC[C@H](NC(=O)CC[C@H](NC(=O)CCCCCNC(=O)c1ccc(F)cc1)C(=O)O)C(=O)O)C(=O)O [CTT-1057],0.0004 µM,,half-life [3]: 12 min; half-life [4]: 75 min
O=C(O)CC[C@H](NP(=O)(O)O[C@@H]1C[C@@H](C(=O)O)N(C(=O)CC[C@H](NC(=O)CCCCCNC(=O)c2ccc(F)cc2)C(=O)O)C1)C(=O)O.O=C(O)CC[C@H](NP(=O)(O)O[C@@H]1C[C@@H](C(=O)O)N(C(=O)CC[C@H](NC(=O)CCCCCNC(=O)c2ccc([18F])cc2)C(=O)O)C1)C(=O)O,,,Drug uptake (Mus musculus): Active; Drug uptake (Kidney): Active; Drug uptake [5]: Active
NCCCCCC(=O)N[C@@H](CCC(=O)N1C[C@@H](OP(=O)(O)N[C@@H](CCC(=O)O)C(=O)O)C[C@@H]1C(=O)O)C(=O)O,0.112 µM,Active,
NCCCCCC(=O)N[C@@H](CCC(=O)N1C[C@H](OP(=O)(O)N[C@@H](CCC(=O)O)C(=O)O)C[C@H]1C(=O)O)C(=O)O,0.079 µM,Active,
N[C@@H](CCC(=O)N1C[C@H](OP(=O)(O)N[C@@H](CCC(=O)O)C(=O)O)C[C@H]1C(=O)O)C(=O)O,0.06 µM,Active,
O=C(O)CC[C@H](NP(=O)(O)OCCC[C@H](NC(=O)CC[C@H](NC(=O)c1ccc(F)cc1)C(=O)O)C(=O)O)C(=O)O,0.0013 µM,,
O=C(O)CC[C@H](NP(=O)(O)O[C@@H]1C[C@@H](C(=O)O)N(C(=O)CC[C@H](NC(=O)CCCCCNC(=O)c2ccc(F)cc2)C(=O)O)C1)C(=O)O,0.0013 µM,Active,half-life [3]: 32 min; half-life [4]: 105 min
N[C@@H](CCC(=O)N[C@@H](CCCOP(=O)(O)N[C@@H](CCC(=O)O)C(=O)O)C(=O)O)C(=O)O,0.027 µM,,
O=C(O)CC[C@H](NP(=O)(O)O[C@H]1C[C@H](C(=O)O)N(C(=O)CC[C@H](NC(=O)CCCCCNC(=O)c2ccc(F)cc2)C(=O)O)C1)C(=O)O,0.011 µM,Active,
